# Measurements from US9261498B2, “Biomarker for sensitivity to mTOR inhibitor therapy in kidney cancer” (The Regents of the University of California, priority 2005, dated 2016).
# Entries after “also recorded” stand apart in the source; their conditions may differ.
# Tests used:
# HIF-2α = test: Immunoblot of HIF-2α protein in VHL knockdown RCC cells; format: cell-based, human; conditions: 1 and 10 nM CCI-779, 24 hours
# Method: (a) SN12C-CSCG and SN12C-VHLshRNA cell were treated with vehicle, 1 nM or 10 nM of CCI-779 and lysed 24 hours later. Lysates were subjected to immunoblotting for HIF-1α, HIF-2α, GLUT-1, CA-IX, p-eIF4G, p-S6 Ribosomal protein. Equal protein loading was verified using anti-β-actin antibody. (b) HIF-1α expression was probed by immunoblotting in SN12C-MSCV-5′TOP-HIF-1α cDNA (left panel) and SN12C-MSCV-HIF-1α cDNA (tight panel) post 24 hours of vehicle, 1 nM or 10 nM of CCI-779.
# Cells and xenograft tumors were lysed in ECB lysis buffer (see, e.g. Kondo et al., Cancer Cell 1, 237-46 (2002)) or high-detergent buffer (2% SDS), (see, e.g. Chen et al., Nat Med 10, 33-9 (2004)), respectively, supplemented with complete protease and phosphatase inhibitor cocktails (Calbiochem). […] Bound antibody was detected using enhanced chemiluminescence (ECL, Amersham). For VEGF ELISA quantification, cells were plated in 6 well plates (1×10^5 per well). […] Thirty-six hours later, VEGF ELISA (R&D Systems) was performed according to the manufacturer's instructions, using a Fisher Plate reader. […]
# Cells and xenograft tumors were lysed in ECB lysis buffer or high-detergent buffer (2% SDS), respectively, supplemented with complete protease and phosphatase inhibitor cocktails (Calbiochem). […] Bound antibody was detected using enhanced chemiluminescence (ECL, Amersham). […]
# HIF-1α mRNA = test: Real-time quantitative RT-PCR of HIF-1α transcript; format: cell-based, human; conditions: 10 nM CCI-779
# Method: Total RNA was extracted from SN12C-CSCG, ACHN-CSCG, SN12C-CSCG-VHLshRNA and ACHN-CSCG-VHL shRNA cell lines treated with vehicle or 10 nM of CCI-779 using the RNeasy kit (Qiagen). Two μg of total RNA was used as a template for the production of c DNA through reverse transcription. The reactions were assembled as in a 25 μl final volume as follows: 1 μM primers (random hexamers; Invitrogen), 10 mM DTT, 1X Superscript II buffer, […] of dATP, dCTP, dGTP and dTTP, 10U RNasin, 200 units of Superscript II reverse transcriptase. Each RNA template, primer and nuclease free water were combined and incubated for 10 minutes, then placed in an ice bath. The remaining reaction components were added and each reaction was incubated at 25° C. for 10 minutes, then 42° C. for 60 minutes and finally 70° C. for 15 minutes. Negative control reactions (which contained no RT enzyme) were also assembled. Real-time PCR was performed on an ABI Prism 7700 sequence detector (Applied Biosystems). Primers and specific probes for HIF-1α and 18S were obtained from Assays-on Demand Gene Expression products (Applied Biosystems). […] Threshold cycles (Ct's) for the RT samples were recorded. […] Tracer uptake by the tumors was expressed as the ratio between the maximum intratumoral and mean hepatic counts/pixel. All quantitative values are reported as mean±standard error of the mean (SEM).
compound,measurement,setting,value
CO[C@H]1C[C@@H]2CC[C@@H](C)[C@@](O)(O2)C(=O)C(=O)N2CCCC[C@H]2C(=O)O[C@H]([C@H](C)C[C@@H]2CC[C@@H](OC(=O)C(C)(CO)CO)[C@H](OC)C2)CC(=O)[C@H](C)/C=C(\C)[C@@H](O)[C@@H](OC)C(=O)[C@H](C)C[C@H](C)/C=C/C=C/C=C/1C [CCI-779],HIF-2α protein levels,HIF-2α,dramatically reduced; also recorded: reduction; also recorded: decrease
same,HIF-1α transcript (mRNA) levels,HIF-1α mRNA,no effect; also recorded: without exerting any effect on transcription; also recorded: did not see any changes
